The results in this text go back to patent US9193681B1, “Propionic acids, propionic acid esters, and related compounds” (Promentis Pharmaceuticals, Inc., priority 2014, dated 2015).

The subject of assay [1] is human glial cells from brain astrocytoma (1321N1). Nature of the assay: 14C-cystine uptake in human glial cell culture. It counts as cell-based. The conditions noted are these: 100 μM (most effective concentration); relative to untreated control; 1321N1 cells; three hour incubation. On the procedure:
The screening of the compound was performed using an in vitro culture system of human glial cells from brain astrocytoma (1321N1). Cells were plated on 24 well plates coated with poly-D-lysine and laminin and grown in a balanced salt solution supplemented with 5% heat inactivated horse serum, 5% fetal bovine serum, 2 mM glutamine and glucose (total 21 mM). Cultures were maintained in humidified 5% CO2 incubators at 37° C. for 3-4 days before experiments were performed, at this time the cultures has formed a single confluent layer. For experiments, cultures are washed 3 times into a Na-free HEPES and HCO3^− buffered balanced salt solution. After 1 hour, the test compounds are added. Following a three hour incubation, ^14C-cystine (0.025 mCi/mL) was then added for 20 minutes. Following the ^14C-cystine exposure, cultures were washed 3 times with ice cold HEPES buffered saline solution and dissolved in 250 μl sodium dodecyl sulfate (0.1%). An aliquot (200 μl) was removed and added to scintillation fluid for counting. Values were normalized to ^14C-cystine uptake in untreated controls on the same experimental plate.

For assay [2] the test system is unchanged. Kind of assay: 3H-glutamate release from human glial cell culture. Format: cell-based. The conditions noted are these: at 3 hours; 100 μM; relative to untreated control; 1321N1 cells. The procedure:
This assay also uses the cell culture system of human glial cells from brain astrocytoma (1321N1) described above. Initially, cells are washed, and ^3H-glutamate is added (PerkinElmer: 1 mCi/mL stock solution is diluted (30 μL+500 μL HBBSS) and 10 μL of diluted radiolabel is added to each well). Following a 1 hour incubation to load the cells with the labeled glutamate, the cells are washed again with HBBSS, and the drug is added. At 30, 90, and 180 minutes, 50 μL of extracellular media is sampled from each well and is measured using a Beckman LS 6500 scintillation counter.

For assay [3], the system named is mixed cortical cell cultures containing glial and neuronal cells. Nature of the assay: In vitro thiol experiment: intracellular cysteine levels. It counts as cell-based, mice. The conditions noted are these: 100 μM. On the procedure: Mixed cortical cell cultures containing glial and neuronal cells were prepared from fetal (15-16 day gestation) mice as previously described. Lobner D, Comparison of the LDH and MTT assays for quantifying cell death: validity for neuronal apoptosis?, J Neurosci Methods, 2000, Mar. 15, 96(2), 147-152). Dissociated cortical cells were plated on 24-well plates coated with poly-D-lysine and laminin in Eagles' Minimal Essential Medium (MEM, Earle's salts, supplied glutamine-free) supplemented with 5% heat-inactivated horse serum, 5% fetal bovine serum, 2 mM glutamine and glucose (total 21 mM). Cultures were maintained in humidified 5% CO2 incubators at 37° C. […]
Samples were then sonicated with a Fisher Scientific 60 Sonic Dismembrator. One fraction of this homogenate was analyzed with the Pierce BCA (bicinchoninic acid) method to determine protein concentration. The other fraction was filtered using 3 K molecular weight cutoff, polyethersulfone centrifugal protein filters, and analyzed for thiol content using high-performance liquid chromatography (ALF-115 column, 150×1.0 mm, 3 μm C18; mobile phase: 50 mM citric acid, 10 mM octanesulfonic acid, 2% acetonitrile, pH 2.8, 50 uL/min flow rate) with electrochemical detection (Decade II, Au working electrode, Flex Cell HyREF, 0.55V, Antec Leyden, Netherlands).

Assay [4] has as its system rats. Nature of the assay: Prepulse inhibition experiment (MK-801-induced deficit). It counts as in vivo, rat. Conditions: 3 mg/kg P.O., MK-801 0.1 mg/kg SC, MK-801 plus vehicle control about 18%. The procedure: Rats were placed on a platform in a sound attenuating chamber (10.875″×14″×19.5″; Hamilton Kinder, Calif.) that rested on a motion sensing plate. During all sessions, the background noise was held constant at 60 dB. A matching session was conducted to determine the magnitude of the average startle response for each rat. This session consisted of a five minute habituation period followed by 20 trials; 17 trials involved the presentation of a single auditory stimulus (pulse stimulus; 50 dB above the background noise) and three trials in which a pre-pulse stimulus (12 db above background) was presented 100 ms before the pulse auditory stimulus. Rats were then assigned into the various treatment groups so that the magnitude of the startle response was equivalent across all groups. Two days later, a testing session was conducted to assess sensorimotor gating. One hour prior to testing, rats received a prodrug (0-100 mg/kg, P.O.) and 55 minutes later acute MK-801 maleate (0.1 mg/kg, SC). […] All startle responses were normalized to vehicle control, and the percent of prepulse inhibition was determined as 100−(average prepulse startle response/average startle stimulus alone)*100.

Assay [5] deals with rats. Nature of the assay: Elevated-plus maze. It counts as in vivo, rat. On the procedure:
Rats were tested in a standard elevated plus maze; testing occurred in a dimly illuminated room using only two lights mounted over the maze. Animals were allowed to habituate to the room for at least one hour prior to treatment. One hour prior to testing, rats received a Pro-4001 (0-30 mg/kg, P.O.). For testing, the rat was placed in the elevated plus maze for five minutes, alternating the starting position between facing an open arm and facing a closed arm. The session was recorded and an observer blind to treatment recorded the number of explorations, entries and time spent in the open arm. Explorations were defined as the rat placing two feet into an open arm without fully entering said arm. Entries were defined as the rat placing all four feet in an open arm. Time of entry in the open arm was recorded from the time the rat placed four feet in the open arm until two of the rats' feet entered the open square.

Turning to `CCOC(=O)[C@H](CSC(=O)[C@@H](N)C(C)C)NC(C)=O.Cl` [Pro-4001, ethyl (2R)-3-{[(2S)-2-amino-3-methylbutanoyl]sulfanyl}-2-acetamido-propanoate hydrochloride], the “decrease in 14C-cystine uptake” value in assay [1] is listed as 50%. The “increase in 3H-glutamate release” value in assay [2] was determined as 175%. Besides, in assay [3], the intracellular cysteine concentration was found to be 0.78 µM and the “intracellular cysteine concentration, times the control value” is “approximately 5 times”. Besides, in the assay on rats [4], the “% prepulse inhibition” value is listed as “about 27%”. Further, in the assay with rats [5] (10 mg/kg PO), the “increase of time spent on the open arm” value was determined as 50% and the “time spent on the open arms” value is “around 21 seconds”. Also, in the assay with rats [5] (30 mg/kg PO), the “increase of time spent on the open arm” value is listed as 64% and the “time spent on the open arms” value was “around 25 seconds”.
